Test results published in patent publication US8158621B2, “Methods of treating or preventing autoimmune diseases with 2,4-pyrimidinediamine compounds” (Rigel Pharmaceuticals, Inc., priority 2002, dated 2012).
Values joined by “and” are separate entries in the source; they are usually repeats but may differ in a detail not shown here. Equal entries are not always repeated.

Key:
[1] = tested on: cultured human mast cells (CHMC); assay: CHMC low cell density ionomycin activation: tryptase assay; type: cell-based; conditions: low cell density; read-out: CHMC Ionomycin Tryptase
[2] = tested on: bone marrow derived mast cells (BMMC); assay: BMMC high cell density IgE activation: hexosaminidase; type: cell-based, mouse; conditions: high cell density; read-out: BMMC anti-IgE Hexos.
[3] = tested on: FcγRI-mediated degranulation; assay: FcγRI-mediated degranulation (anti-human IgG Fab activation); type: cell-based; conditions: cells not primed with IgE, activated with rabbit anti-human IgG Fab fragment
[4] = Mouse Reverse Passive Arthus reaction (RPA reaction); type: in vivo, C57BL/6 mice; conditions: oral, 100 mg/kg
Outline: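 C57BL/6 mice dosed with compound before challenge, pretreatment time set by each compound's PK; rabbit anti-OVA IgG (50 μg/mouse) given intradermally, then ovalbumin 20 mg/kg i.v. with 1% Evans blue. Dorsal skin edema and hemorrhage read by dye extravasation at 4 h; purified polyclonal rabbit IgG as control.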

Primary T-cells [5] = assay: Primary T-cell cytokine production (αCD3/αCD28): IL-2; type: cell-based, human; conditions: read-out: 1° T-Cell IL2 IC50
Outline: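 IL-2 in 18 hr supernatants measured by ELISA against a standard curve or by Luminex multiplex, with IC50 derived relative to solvent-only wells. Non-adherent human donor lymphocytes were preincubated 30 min with compound, then moved to wells coated with αCD3 (5 μg/ml) and αCD28 (10 μg/ml).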

Primary T-cells [6] = assay: Primary T-cell cytokine production (αCD3/αCD28): GMSCF; type: cell-based, human; conditions: read-out: 1° T-Cell GMSCF IC50
Experimental: (§1) 2E8-4E8 PBMC or proliferating T cells grown in rIL-2 from healthy human donors were suspended in PBS were spun down (1500 rpm, 8-10 minutes) and resuspended in 100 ml RPMI Complete media (1% Pen-Strep, 1% L-Glutamine, 10 mM HEPES). The cells were plated in T175 flasks (37° C., 5% CO2) and monocytes were allowed to adhere for 2-3 hours. After monocyte attachment, non-adherent cells were harvested, counted by hemocytometer, washed several times with PBS then resuspended in Yssels Complete Media (Modified IMDM Media with 1% Human AB Serum, 1% Pen-Strep, 1% L-Glutamine, 10 mM HEPES) at […]. 90 uL of the cell dilution were then added to compounds diluted to 2× in Yssel's media and incubated for 30 minutes at 37° C. (5% CO2). After this preincubation step the compound/cell mixture was transferred to stimulation plates, as described below.
(§2) Stimulation plates were prepared by coating 96 well plates with 5 μg/ml αCD3 (BD PharMingen, Catalog #555336)+10 μg/ml αCD28 (Beckman Coulter, Catalog #IM1376) in PBS (no Ca^2+/Mg^2+) at 37° C. (5% CO2) for at 3-5 hours. After incubation with the stimulation antibodies, the cocktail was removed and the plates washed 3 times with PBS prior to addition of the primary T cell/compound mixture.
(§3) The compound/cell mixture was transferred to the stimulation plates and incubated for 18 hr at 37° C. (5% CO2). After the cell stimulation, ˜150 μl supernatant were transferred from each well into 96-well filter plates (Coming PVDF Filter Plates) spun down (2000 rpm, 2-3 minutes) and either used immediately for ELISA or LUMINEX measurements or frozen down at −80° C. for future use.
(§4) Luminex immunoassay multiplexing for TNF, IL-2, GMSCF, IL-4 and IFNg was performed essentially as described by the manufacturer (Upstate Biotechnology). Essentially 50 uL of sample was diluted into 50 uL assay diluent and 50 uL incubation buffer, then incubated with 100 uL of the diluted detection antibody for 1 hr at RT in the dark. The filter plate was washed 2× in Wash Buffer, then incubated with 100 uL of the diluted secondary reagent (SAV-RPE) for 30 min at RT in the dark. Finally the plates were washed 3 times and bead identification and RPE fluorescent measured by the Luminex instrument.
(§5) Varied concentrations of compound were compared to solvent only to determine the inhibition of T-cell activation IC50 of each compound.

Primary T-cells [7] = assay: Primary T-cell cytokine production (αCD3/αCD28): IL-4; type: cell-based, human; conditions: read-out: 1° T-Cell IL4 IC50
Experimental: as §1, §2, §3, §4, §5

Primary T-cells [8] = assay: Primary T-cell cytokine production (αCD3/αCD28): IFNg; type: cell-based, human; conditions: read-out: 1° T-Cell IFNg IC50
Experimental: as §1, §2, §3, §4, §5

COc1cc(Nc2ncc(F)c(Nc3ccc4c(c3)NC(=O)C(C)(C)O4)n2)cc(OC)c1 [Compound R927050]
IC50 [1]: 3.29 µM
IC50 [2]: 0.103 µM
inhibition of FcγRI-mediated degranulation [3]: inhibit FcγRI-mediated degranulation
% inhibition to vehicle control Edema Size ± SEM ([4]; pretreatment time 0.5 hrs): −0.3 ± 6.6%
Plasma Concentration ± SEM (ng/ml) Exposure = Pretreatment Time + 4 hours ([4]; pretreatment time 0.5 hrs + 4 hours): 619 ± 130 ng/mL
% inhibition to vehicle control Edema Size ± SEM ([4]; pretreatment time 1 hrs): 14.9 ± 20.5% and 7 ± 19%
Plasma Concentration ± SEM (ng/ml) Exposure = Pretreatment Time + 4 hours ([4]; pretreatment time 1 hrs + 4 hours): 837 ± 104 ng/mL and 1018 ± 189 ng/mL
% inhibition to vehicle control Edema Size ± SEM ([4]; pretreatment time 2 hrs): 64.0 ± 8.9%
Plasma Concentration ± SEM (ng/ml) Exposure = Pretreatment Time + 4 hours ([4]; pretreatment time 2 hrs + 4 hours): 557 ± 78 ng/mL
IC50 (Primary T-cells [5]): 0.928 µM
IC50 (Primary T-cells [6]): 1.12 µM
IC50 (Primary T-cells [7]): 0.275 µM
IC50 (Primary T-cells [8]): 0.916 µM
